Results as given in US20140005103A1, “SULFONAMIDE DERIVATIVES AND METHODS OF USE THEREOF FOR IMPROVING THE PHARMACOKINETICS OF A DRUG” (Merck, Sharp & Dohme Corp., priority 2012, published 2014).

Columns and labels:
[1] = target: T1, CYP2C9 (Homo sapiens, UniProt P11712); test: Cocktail CYP assay, diclofenac 4'-hydroxylation; type: in vitro ADME; conditions: human liver microsomes, 5 μM diclofenac; test concentrations up to 10 μM
T1 construct: 0.1 mg/mL protein human liver microsomes (BD Gentest); tissue BD Gentest; host or cells: human liver microsomes
T1 sequence (P11712 whole entry): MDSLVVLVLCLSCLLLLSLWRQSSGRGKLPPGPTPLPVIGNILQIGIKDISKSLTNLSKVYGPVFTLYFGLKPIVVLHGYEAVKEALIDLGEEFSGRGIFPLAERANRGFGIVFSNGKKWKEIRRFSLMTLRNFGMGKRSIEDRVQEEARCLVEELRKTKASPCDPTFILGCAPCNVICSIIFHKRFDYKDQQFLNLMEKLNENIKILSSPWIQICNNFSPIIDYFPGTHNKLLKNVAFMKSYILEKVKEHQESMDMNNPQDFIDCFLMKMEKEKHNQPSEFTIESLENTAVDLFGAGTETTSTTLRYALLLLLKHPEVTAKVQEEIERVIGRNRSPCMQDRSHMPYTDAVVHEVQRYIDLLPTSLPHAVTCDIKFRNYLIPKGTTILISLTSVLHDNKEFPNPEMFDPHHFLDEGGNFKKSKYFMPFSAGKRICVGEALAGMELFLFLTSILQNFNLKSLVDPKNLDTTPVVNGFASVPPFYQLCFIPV
Procedure: (§1) Determination of IC50 in a Cocktail Assay for CYPs 1A2, 2C9, 2C19, 2D6 and 3A4
(§2) This assay was performed in a standard 96-well plate design. IC50 values were calculated from the percent inhibition observed for each test compound at 6 concentrations (for example, 0.0032, 0.016, 0.08, 0.4, 2 and 10 μM). The incubation substrate mix contains 10 μM phenacetin (1A2), 5 μM diclofenac (2C9), 30 μM mephenyloin (2C19), 5 μM dextromethorphan (2D6) and 2 μM midazolam (3A4), 0.1 mg/mL protein human liver microsomes (BD Gentest), 1 mM NAPDH, 3.3 mM MgCl2 and 100 mM potassium phosphate buffer (pH 7.4). The production of the metabolite of each probe substrate was determined after incubation for 10 min at 37° C. Quantitation of the metabolite peak area ratio against an internal standard (tolbutamide) was determined by LC/MS/MS analysis following acetonitrile treatment of the incubations.
(§3) Samples were analyzed in the MRM mode with a SCIEX API-4000 mass spectrometer (Applied Biosystems, Foster City, Calif.), with a Shimadzu LC-20 AD pump (Shimadzu corporation, Kyoto, JP) and a CTC PAL autosampler (Agilent Technologies, Switzerland). A Phenomenex, Luna, 5 nm, 100 A, 2.00×30 mm HPLC column was used for the separation. The mobile phases were: (A) 0.1% formic acid in water and (B) 0.1% formic acid in acetonitrile. The binary gradient was as follows.
(§4) The peak area ratio of the analyte to the internal standard was used to quantify the metabolite. The values of peak area ratios in the presence of test compound were compared to those of maximum or minimum controls and were expressed as % inhibition by interpolating between the maximum and minimum peak area ratios. Incubations with no inhibitor were defined as the maxima.
(§5) The following equation was used to calculate the % inhibition:
(§6) [1−[(X−Low control)/(High control−Low control)]]*100
(§7) For the IC50 calculation, SigmaPlot was used to plot the mean % inhibition versus the test compound concentrations and for non-linear regression analysis of the data. Depending on the range of data points defining the inhibition curve, the data may have been fit to the 4-parameter logistic equation.

[2] = target: T2, CYP2C19 (Homo sapiens, UniProt P33261); test: Cocktail CYP assay, mephenytoin 4'-hydroxylation; type: in vitro ADME; conditions: human liver microsomes, 30 μM mephenytoin; test concentrations up to 10 μM
T2 construct: 0.1 mg/mL protein human liver microsomes (BD Gentest); tissue BD Gentest; host or cells: human liver microsomes
T2 sequence (P33261 whole entry): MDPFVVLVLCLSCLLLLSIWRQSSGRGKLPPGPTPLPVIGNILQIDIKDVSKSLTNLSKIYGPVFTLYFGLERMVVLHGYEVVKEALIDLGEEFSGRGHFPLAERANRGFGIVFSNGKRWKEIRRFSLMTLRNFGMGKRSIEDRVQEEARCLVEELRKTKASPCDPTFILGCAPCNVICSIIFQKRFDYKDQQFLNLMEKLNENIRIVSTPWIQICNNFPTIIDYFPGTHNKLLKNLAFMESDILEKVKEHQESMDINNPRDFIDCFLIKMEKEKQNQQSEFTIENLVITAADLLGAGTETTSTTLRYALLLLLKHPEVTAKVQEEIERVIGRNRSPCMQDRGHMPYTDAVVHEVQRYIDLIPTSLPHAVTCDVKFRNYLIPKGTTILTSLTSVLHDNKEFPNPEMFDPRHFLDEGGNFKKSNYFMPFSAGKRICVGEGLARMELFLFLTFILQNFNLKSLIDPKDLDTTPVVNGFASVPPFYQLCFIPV
Procedure: as §1, §2, §3, §4, §5, §6, §7

[3] = target: T3, CYP2D6 (Homo sapiens, UniProt P10635); test: Cocktail CYP assay, dextromethorphan O-demethylation; type: in vitro ADME; conditions: human liver microsomes, 5 μM dextromethorphan; test concentrations up to 10 μM
T3 construct: 0.1 mg/mL protein human liver microsomes (BD Gentest); tissue BD Gentest; host or cells: human liver microsomes
T3 sequence (P10635 whole entry): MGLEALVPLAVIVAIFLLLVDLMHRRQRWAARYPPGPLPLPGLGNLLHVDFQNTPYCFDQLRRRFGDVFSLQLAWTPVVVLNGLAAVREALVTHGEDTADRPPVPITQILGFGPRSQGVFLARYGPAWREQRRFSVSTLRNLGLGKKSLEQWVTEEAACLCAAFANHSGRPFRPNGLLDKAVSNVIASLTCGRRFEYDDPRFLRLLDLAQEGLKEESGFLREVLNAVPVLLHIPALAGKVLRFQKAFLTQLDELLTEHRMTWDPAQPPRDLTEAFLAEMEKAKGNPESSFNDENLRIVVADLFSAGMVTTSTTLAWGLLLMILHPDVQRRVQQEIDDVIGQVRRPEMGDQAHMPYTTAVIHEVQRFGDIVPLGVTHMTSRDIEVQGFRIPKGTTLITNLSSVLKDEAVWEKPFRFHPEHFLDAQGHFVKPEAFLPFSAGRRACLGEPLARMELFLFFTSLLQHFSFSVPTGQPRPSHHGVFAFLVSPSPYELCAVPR
Procedure: as §1, §2, §3, §4, §5, §6, §7

[4] = target: T4, CYP1A2 (Homo sapiens, UniProt P05177); test: Cocktail CYP assay, phenacetin O-deethylation; type: in vitro ADME; conditions: human liver microsomes, 10 μM phenacetin; test concentrations up to 10 μM
T4 construct: 0.1 mg/mL protein human liver microsomes (BD Gentest); tissue BD Gentest; host or cells: human liver microsomes
T4 sequence (P05177 1-516): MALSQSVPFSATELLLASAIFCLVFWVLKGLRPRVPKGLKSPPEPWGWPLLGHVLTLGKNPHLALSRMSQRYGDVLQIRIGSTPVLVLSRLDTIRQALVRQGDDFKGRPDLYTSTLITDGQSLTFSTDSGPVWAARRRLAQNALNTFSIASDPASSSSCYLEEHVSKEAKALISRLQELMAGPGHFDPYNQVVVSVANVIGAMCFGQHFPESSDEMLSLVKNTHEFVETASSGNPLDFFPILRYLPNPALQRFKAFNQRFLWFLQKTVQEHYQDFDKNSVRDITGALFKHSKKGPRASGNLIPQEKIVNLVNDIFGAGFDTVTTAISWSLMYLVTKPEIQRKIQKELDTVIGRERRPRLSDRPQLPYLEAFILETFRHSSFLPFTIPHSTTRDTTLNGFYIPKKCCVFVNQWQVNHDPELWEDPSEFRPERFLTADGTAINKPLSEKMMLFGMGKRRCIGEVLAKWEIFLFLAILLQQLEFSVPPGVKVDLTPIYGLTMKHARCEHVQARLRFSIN
Procedure: as §1, §2, §3, §4, §5, §6, §7

[5] = target: CYP3A4 (Homo sapiens, UniProt P08684); test: IC50 vs CYP3A by inhibition of lopinavir metabolism in human liver microsomes; type: biochemical; conditions: pH 7.4, human liver microsomes, 1.5 μM lopinavir, 8 min at 37° C., test concentrations 0.098-100 nM, read-out: 3A4(LPV)
Chain of CYP3A4 (P08684 2-503): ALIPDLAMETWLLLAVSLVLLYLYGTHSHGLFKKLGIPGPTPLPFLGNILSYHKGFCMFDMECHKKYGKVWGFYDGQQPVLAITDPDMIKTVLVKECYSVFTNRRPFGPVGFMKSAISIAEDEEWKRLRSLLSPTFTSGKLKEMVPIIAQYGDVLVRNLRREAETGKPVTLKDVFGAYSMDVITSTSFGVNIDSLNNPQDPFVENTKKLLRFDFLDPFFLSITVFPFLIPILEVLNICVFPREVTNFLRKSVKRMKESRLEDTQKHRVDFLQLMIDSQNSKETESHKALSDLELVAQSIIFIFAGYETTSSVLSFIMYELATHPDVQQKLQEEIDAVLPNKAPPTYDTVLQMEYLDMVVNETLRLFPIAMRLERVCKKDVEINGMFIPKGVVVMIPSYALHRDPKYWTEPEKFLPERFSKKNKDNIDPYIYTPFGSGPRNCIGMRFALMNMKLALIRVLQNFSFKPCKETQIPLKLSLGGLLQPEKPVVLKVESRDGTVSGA
Procedure: Determination of IC50 vs CYP3A by Measurement of Inhibition of Lopinavir Metabolism
This assay was performed in a standard 96-well plate design. IC50 values were calculated from the percent inhibition observed for each test compound at 6 concentrations (for example, 0.098, 0.391, 1.56, 6.25, 25 and 100 nM). The incubation substrate mix contains 1.5 μM lopinavir, 0.01 mg/mL protein human liver microsomes (BD Gentest), 1 mM NAPDH, 3.3 mM MgCl2 and 100 mM potassium phosphate buffer (pH 7.4). The production of the sum of three hydroxylated metabolites (M2: 6-hydroxy lopinavir, M3: 4-hydroxy lopinavir, M4: 4-hydroxy lopinavir (epimer of M3), Kumar et al., 1999) was determined after incubation for 8 min at 37° C. Quantitation of the metabolite peak area ratio against an internal standard (tolbutamide) was determined by LC/MS/MS analysis following acetonitrile treatment of the incubations.
as §3, with “μm,” for “nm,”
as §4, with “maxima and with 5 μM ketoconazole were defined as the minima” for “maxima.”
as §5, §6, §7

[6] = target: T5, human CYP11B1 (Homo sapiens, UniProt P15538); test: IC50 vs CYP11B1 by cortisol synthesis in V79 cells; type: cell-based; conditions: V79 cells expressing human CYP11B1, 1500 nM RSS, cortisol HTRF; test concentrations 0.5-10000 nM
T5 construct: expressed in transfected cells
T5 sequence (P15538 25-503): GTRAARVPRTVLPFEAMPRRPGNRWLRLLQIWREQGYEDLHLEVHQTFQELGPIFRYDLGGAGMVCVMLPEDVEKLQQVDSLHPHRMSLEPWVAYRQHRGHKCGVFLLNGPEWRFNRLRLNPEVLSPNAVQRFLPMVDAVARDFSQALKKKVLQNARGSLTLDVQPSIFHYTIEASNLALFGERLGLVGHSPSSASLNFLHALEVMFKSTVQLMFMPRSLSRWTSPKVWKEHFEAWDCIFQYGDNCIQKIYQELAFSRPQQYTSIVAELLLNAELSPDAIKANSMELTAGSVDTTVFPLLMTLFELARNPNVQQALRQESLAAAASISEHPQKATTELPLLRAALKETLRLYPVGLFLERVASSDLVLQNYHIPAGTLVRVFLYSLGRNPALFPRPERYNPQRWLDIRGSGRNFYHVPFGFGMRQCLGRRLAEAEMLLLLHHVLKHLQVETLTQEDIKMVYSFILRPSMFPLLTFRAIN
Procedure: (§8) Determination of IC50 vs CYP11B1/CYP11B2 by Measurement of Cortisol/Aldosterone Synthesis
(§9) This assay was performed in a standard 384-well plate design using cultured V79 cells stably expressing human CYP11B1 or human CYP11B2. Test compounds at 10 concentrations (for example, 10000, 3333.3, 1111.1, 370.4, 123.5, 41.2, 13.7, 4.6, 1.5 and 0.5 nM) were added in 384-well plate after the cell-seeding procedure. The incubation substrate contains 1500 nM RSS for CYP11B1 assay/750 nM DOC for CYP11B2 assay. The
(§10) Cortisol/Aldosterone production of cell culture supernatant was determined by Cortisol/Aldosterone HTRF kit after for about 15 hours incubation at RT (protect from light). IC50 values were calculated from the percent inhibition observed for each test compound at 10 concentrations.
(§11) The assay plate was read using Envision (Perkin Elmer, Waltham, Mass.) at 665 nm and 590 nm (using Filter Barcode of 217#, 205#; Mirror Barcode of 446#).
(§12) Data are analyzed using Assay Data Analyzer. All ratio data (665 nm/590 nm) are back calculated according to the standard curve, resulting in Cortisol/Aldosterone concentrations. IC50 values are reported as the Inflection Point (IP) of a four parameter fit of the titration data.
as §5
(§13) % Activity=100×{1−(Sample_back calculated Cortisol/Aldosterone concentration−LC_back calculated Cortisol/Aldosterone concentration)/(HC_back calculated Cortisol/Aldosterone concentration−LC_back calculated Cortisol/Aldosterone concentration)}

[7] = target: T6, human CYP11B2 (Homo sapiens, UniProt P19099); test: IC50 vs CYP11B2 by aldosterone synthesis in V79 cells; type: cell-based; conditions: V79 cells expressing human CYP11B2, 750 nM DOC, aldosterone HTRF; test concentrations 0.5-10000 nM
T6 construct: expressed in transfected cells
T6 sequence (P19099 25-503): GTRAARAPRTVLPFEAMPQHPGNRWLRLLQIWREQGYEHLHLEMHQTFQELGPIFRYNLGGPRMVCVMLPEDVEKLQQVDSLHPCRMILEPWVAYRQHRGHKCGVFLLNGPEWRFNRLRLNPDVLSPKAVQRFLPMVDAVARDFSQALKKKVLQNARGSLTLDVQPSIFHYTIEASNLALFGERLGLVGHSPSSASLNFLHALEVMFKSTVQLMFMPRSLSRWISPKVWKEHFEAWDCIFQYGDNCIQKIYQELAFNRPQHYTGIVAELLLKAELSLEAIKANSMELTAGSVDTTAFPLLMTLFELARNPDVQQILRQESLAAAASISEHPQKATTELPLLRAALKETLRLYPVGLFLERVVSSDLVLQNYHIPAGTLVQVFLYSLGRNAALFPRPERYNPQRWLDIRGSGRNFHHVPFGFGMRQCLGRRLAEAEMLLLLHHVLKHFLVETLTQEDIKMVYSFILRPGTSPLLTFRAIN
Procedure: as §8, §9, §10, §11, §12, §5, §13

Compound	IC50 [1]	IC50 [2]	IC50 [3]	IC50 [4]	IC50 at 8 min [5]	IC50 [6]	IC50 [7]
C[C@H](c1ccc(F)cc1)n1cncc1C1CC12CCN(S(=O)(=O)c1cnc(N3CCN(C)CC3)s1)CC2 (single isomer, unassigned) [Compound 43a]	> 10 µM	> 10 µM	2.9 µM	> 10 µM	–	–	–
C[C@H](c1ccc(F)cc1)n1cncc1C1CC12CCN(S(=O)(=O)c1cnc(N3CCN(C)CC3)s1)CC2 (single isomer, unassigned) [Compound 43b]	> 10 µM	9.2 µM	3.6 µM	> 10 µM	–	–	–
COC(c1cncn1[C@H](C)c1ccc(F)cc1)C1CCN(S(=O)(=O)c2cnc(Nc3ccc(C(F)(F)F)cn3)s2)CC1 (single isomer, unassigned) [Compound 45a]	0.336 µM	1.13 µM	5.68 µM	> 10 µM	< 0.00098 µM	–	–
C[C@H](c1ccc(F)cc1)n1cncc1CN1CCN(S(=O)(=O)c2cnc(N3CCC(S(C)(=O)=O)C3)s2)CC1 (stereo partly drawn) [Compound 7]	3.39 µM	> 10 µM	> 10 µM	> 10 µM	–	4.09 µM	–
C[C@H](c1ccc(F)cc1)n1cncc1CN1CCN(S(=O)(=O)c2cnc(N3CC[C@@H](N)[C@H](F)C3)s2)CC1 [Compound 12]	1.75 µM	> 10 µM	2.85 µM	> 10 µM	–	1.46 µM	1.69 µM
C[C@H](c1ccc(F)cc1)n1cncc1C1CN(C)CC2CN(S(=O)(=O)c3cnc(Nc4ccccn4)s3)CCN21 (stereo partly drawn) [Compound 41]	2.26 µM	4.95 µM	2.3 µM	> 10 µM	0.0021 µM	–	–

The remaining lines, values ahead:

IC50 [1]	IC50 [2]	IC50 [3]	IC50 [4]	IC50 at 8 min [5]	IC50 [6]	IC50 [7]	Compound
1.45 µM	4.49 µM	7.85 µM	> 10 µM	–	–	–	COC(c1cncn1[C@H](C)c1ccc(F)cc1)C1CCN(S(=O)(=O)c2cnc(Nc3ccc(C(F)(F)F)cn3)s2)CC1 (single isomer, unassigned) [Compound 45b]
7.41 µM	> 10 µM	–	> 10 µM	0.0014 µM	1.56 µM	–	C[C@H](c1ccc(F)cc1)n1cncc1CN1CCN(S(=O)(=O)c2cnc(N3CC[C@@H]4OCCN[C@H]4C3)s2)CC1 [Compound 13]
9.76 µM	> 10 µM	–	> 10 µM	–	1.05 µM	–	C[C@H](c1ccc(F)cc1)n1cncc1CN1CCN(S(=O)(=O)c2cnc(N3CC[C@@H]4OCCN[C@H]4C3)s2)CC1 [Compound 14]
3.57 µM	8.39 µM	2.41 µM	> 10 µM	0.0011 µM	–	–	C[C@H](c1ccc(F)cc1)n1cncc1CC1CCN(S(=O)(=O)c2cnc(N3CCN(C)CC3)s2)CC1 [Compound 44]
> 10 µM	> 10 µM	5.84 µM	> 10 µM	0.013 µM	–	–	C[C@H](c1ccc(F)cc1)n1cncc1CC1(CO)CCN(S(=O)(=O)c2cnc(N3CCN(C)CC3)s2)CC1 [Compound 47]
> 10 µM	8.06 µM	2.85 µM	> 10 µM	0.0094 µM	–	–	C[C@H](c1ccc(F)cc1)n1cncc1CC1(C#N)CCN(S(=O)(=O)c2cnc(N3CCN(C)CC3)s2)CC1 [Compound 48]
